Reference: PubChem BioAssay (NCI)
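Interpolation was linear, between the two tested concentrations surrounding the appropriate level; five concentrations were tested over 48 hours in 96-well plates. TGI is the concentration that stops growth completely.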

Legend:
Assay in all cases: inhibition of tumour cell growth, NCI panel, 48 h
NCI-H522 lung = test system: NCI-H522 lung
SK-MEL-5 melanoma = test system: SK-MEL-5 melanoma
DU-145 prostate = test system: DU-145 prostate
ACHN renal = test system: ACHN renal
UO-31 renal = test system: UO-31 renal
HOP-92 NSCLC = test system: HOP-92 NSCLC
SNB-75 CNS = test system: SNB-75 CNS
PC-3 prostate = test system: PC-3 prostate
LOX IMVI melanoma = test system: LOX IMVI melanoma
OVCAR-5 ovarian = test system: OVCAR-5 ovarian
MDA-N = test system: MDA-N
MDA-MB-231 breast = test system: MDA-MB-231 breast
MDA-MB-435 = test system: MDA-MB-435
KM12 colon = test system: KM12 colon
K-562 leukemia = test system: K-562 leukemia
SK-OV-3 ovarian = test system: SK-OV-3 ovarian
OVCAR-3 ovarian = test system: OVCAR-3 ovarian
COLO 205 colon = test system: COLO 205 colon
RXF 393 renal = test system: RXF 393 renal
SF-295 CNS = test system: SF-295 CNS
UACC-62 melanoma = test system: UACC-62 melanoma
A498 renal = test system: A498 renal
CAKI-1 renal = test system: CAKI-1 renal
OVCAR-4 ovarian = test system: OVCAR-4 ovarian
HCC-2998 colon = test system: HCC-2998 colon
UACC-257 melanoma = test system: UACC-257 melanoma
786-0 renal = test system: 786-0 renal
SK-MEL-28 melanoma = test system: SK-MEL-28 melanoma
IGROV1 ovarian = test system: IGROV1 ovarian
HOP-62 NSCLC = test system: HOP-62 NSCLC
MALME-3M melanoma = test system: MALME-3M melanoma
RPMI-8226 leukemia = test system: RPMI-8226 leukemia
MOLT-4 leukemia = test system: MOLT-4 leukemia
M14 melanoma = test system: M14 melanoma
CCRF-CEM leukemia = test system: CCRF-CEM leukemia
BT-549 breast = test system: BT-549 breast
HS 578T breast = test system: HS 578T breast
SR leukemia = test system: SR leukemia
NCI-H23 lung = test system: NCI-H23 lung
HT29 colon = test system: HT29 colon
NCI-H460 lung = test system: NCI-H460 lung
SF-268 CNS = test system: SF-268 CNS
TK-10 renal = test system: TK-10 renal
SK-MEL-2 melanoma = test system: SK-MEL-2 melanoma
HCT-15 colon = test system: HCT-15 colon
A549 NSCLC = test system: A549 NSCLC
HCT-116 colon = test system: HCT-116 colon
SNB-19 CNS = test system: SNB-19 CNS
SN12C renal = test system: SN12C renal
EKVX NSCLC = test system: EKVX NSCLC
SW-620 colon = test system: SW-620 colon
U251 CNS = test system: U251 CNS

`C=CC(C)(C)n1cc(C2=C(O)C(=O)C(c3cn(C(C)(C)C=C)c4ccccc34)=C(OC(C)=O)C2=O)c2ccccc21` was tested, and the TGI (NCI-H522 lung) was 2.97 µM, the TGI (SK-MEL-5 melanoma) was 1870 nM and the TGI (DU-145 prostate) was 2230 nM. It also gave a TGI (ACHN renal) of 2550 nM, a TGI (UO-31 renal) of 2300 nM and a TGI (HOP-92 NSCLC) of 1.95 µM. For the same molecule, the TGI (SNB-75 CNS) was 1.55 µM, the TGI (PC-3 prostate) was 1990 nM and the TGI (LOX IMVI melanoma) was 1720 nM. It also gave a TGI (OVCAR-5 ovarian) of 3.08 µM, a TGI (MDA-N) of 1990 nM and a TGI (MDA-MB-231 breast) of 2.63 µM. It also gave a TGI (MDA-MB-435) of 1740 nM, a TGI (KM12 colon) of 1970 nM and a TGI (K-562 leukemia) of 2170 nM. For the same molecule, the TGI (SK-OV-3 ovarian) was 2850 nM, the TGI (OVCAR-3 ovarian) was 2250 nM and the TGI (COLO 205 colon) was 3.07 µM. The TGI (RXF 393 renal) was 2380 nM, the TGI (SF-295 CNS) was 1880 nM and the TGI (UACC-62 melanoma) was 2180 nM. The TGI (A498 renal) was 2100 nM, the TGI (CAKI-1 renal) was 2280 nM and the TGI (OVCAR-4 ovarian) was 2640 nM. The TGI (HCC-2998 colon) was 2.16 µM, the TGI (UACC-257 melanoma) was 2.19 µM and the TGI (786-0 renal) was 2800 nM. It also gave a TGI (SK-MEL-28 melanoma) of 2500 nM, a TGI (IGROV1 ovarian) of 1650 nM and a TGI (HOP-62 NSCLC) of 1940 nM. For the same molecule, the TGI (MALME-3M melanoma) was 3.06 µM and the TGI (RPMI-8226 leukemia) was 3.88 µM.
For `CCOC(=O)C(Cc1c(-c2[nH]c3ccccc3c2CC(NC(=O)CNC(C)=O)C(=O)OCC)[nH]c2ccccc12)NC(=O)CNC(C)=O` (centres undefined), the TGI (NCI-H522 lung) was 88.8 µM, the TGI (SK-MEL-5 melanoma) was > 100000 nM and the TGI (DU-145 prostate) was > 100000 nM. The TGI (MOLT-4 leukemia) was > 100 µM, the TGI (UO-31 renal) was > 100000 nM and the TGI (M14 melanoma) was > 100 µM. The TGI (HOP-92 NSCLC) was 85.2 µM, the TGI (SNB-75 CNS) was 93.6 µM and the TGI (PC-3 prostate) was > 100000 nM. For the same molecule, the TGI (CCRF-CEM leukemia) was > 100 µM, the TGI (OVCAR-5 ovarian) was > 100 µM and the TGI (MDA-N) was > 100000 nM. For the same molecule, the TGI (MDA-MB-231 breast) was 40.6 µM, the TGI (BT-549 breast) was > 100 µM and the TGI (MDA-MB-435) was > 100000 nM. The TGI (KM12 colon) was > 100000 nM, the TGI (SK-OV-3 ovarian) was > 100000 nM and the TGI (HS 578T breast) was > 100 µM. For the same molecule, the TGI (OVCAR-3 ovarian) was > 100000 nM, the TGI (SR leukemia) was > 100 µM and the TGI (NCI-H23 lung) was > 100 µM. The TGI (COLO 205 colon) was 35.4 µM, the TGI (SF-295 CNS) was > 100000 nM and the TGI (UACC-62 melanoma) was > 100000 nM. For the same molecule, the TGI (A498 renal) was > 100000 nM, the TGI (HT29 colon) was > 100 µM and the TGI (CAKI-1 renal) was > 100000 nM. For the same molecule, the TGI (OVCAR-4 ovarian) was > 100000 nM, the TGI (NCI-H460 lung) was > 100 µM and the TGI (SF-268 CNS) was > 100 µM. For the same molecule, the TGI (TK-10 renal) was > 100 µM, the TGI (SK-MEL-2 melanoma) was 39.9 µM and the TGI (HCT-15 colon) was > 100 µM. For the same molecule, the TGI (A549 NSCLC) was > 100 µM, the TGI (HCT-116 colon) was > 100 µM and the TGI (HCC-2998 colon) was 47.8 µM. For the same molecule, the TGI (UACC-257 melanoma) was 73.5 µM, the TGI (SK-MEL-28 melanoma) was > 100000 nM and the TGI (SNB-19 CNS) was > 100 µM. The TGI (IGROV1 ovarian) was > 100000 nM, the TGI (HOP-62 NSCLC) was > 100000 nM and the TGI (SN12C renal) was > 100 µM. For the same molecule, the TGI (EKVX NSCLC) was > 100 µM, the TGI (MALME-3M melanoma) was 38.2 µM and the TGI (SW-620 colon) was > 100 µM. The TGI (RPMI-8226 leukemia) was > 100 µM and the TGI (U251 CNS) was > 100 µM.
